Test results from patent publication US7250410B2, “Cyclic nucleotide phosphodiesterase inhibitors, preparation and uses thereof” (Via Pharmaceuticals, Inc., priority 2001, dated 2007).
Several values for one entry are separate records, joined by “and”; a condition that tells them apart may be missing. Equal values may be shown once.

Biological target: PDE4
Assay: Inhibition of PDE4, radioenzymatic phosphodiesterase assay
Assay type: biochemical, bovine
Conditions: Table 1, formula (III); 1 μM cyclic AMP
Experimental: A 3 g segment of bovine aortic media cut into pieces with scissors was homogenized with an ultra-turrax then a potter glass/glass homogenizer in 7 volumes by weight of buffer A containing a protease inhibitor cocktail (20 mM Tris-HCl, 0.25 M saccharose, 2 mM magnesium acetate, 1 mM dithiothreitol, 5 mM EGTA, 2000 U/ml aprotinin, 10 mg/l leupeptin and 10 mg/l soya trypsic inhibitor). The homogenizate was centrifuged at 105,000 g for 1 hour. […] The column was washed until there was no detectable absorption at 280 nm, then eluted with a linear gradient of NaCl (0–0.5 M) in buffer B. 3-ml fractions were collected and enzyme activity was determined under the conditions described hereinafter to localize the different enzymes PDE1, PDE3, PDE4 and PDE5, which were aliquoted and frozen at −80° C.
The nucleoside formed was separated from the nucleotides by anion exchange chromatography. Nucleoside radioactivity was determined by liquid scintillation counting.

Point of comparison: `COc1cc2c(cc1OC)C(c1ccc(-c3ccccc3OC)cc1)=NN(C)C(=O)C2` [IIIai, 7,8-dimethoxy-1-[4-(2-methoxyphenyl)phenyl]-3-methyl-3,5-dihydro-4H-2,3-benzodiazepin-4-one], IC50 1.8 µM. Against it:
- COc1cc2c(cc1OC)C(c1ccc(-c3ccccc3C)cc1)=NN(C)C(=O)C2 [IIIaq, 7,8-dimethoxy-3-methyl-1-[4-(2-methylphenyl)phenyl]-3,5-dihydro-4H-2,3-benzodiazepin-4-one] — within 1.5-fold, 1.9 µM
- COc1cc2c(cc1OC)C(c1ccc(I)cc1)=NN(C)C(=O)C2 [IIIah, 1-(4-iodophenyl)-7,8-dimethoxy-3-methyl-3,5-dihydro-4H-2,3-benzodiazepin-4-one] — 1.7-fold higher, 3.1 µM
- CCOc1cc2c(cc1OCC)C(c1cc3ccccc3s1)=NN(C)C(=O)C2 [IIIba, 1-(2-benzo[b]thienyl)-7,8-diethoxy-3-methyl-3,5-dihydro-4H-2,3-benzodiazepin-4-one] — 3.8-fold higher, 6.9 µM
- COc1ccc(-c2ccc(C3=NN(C)C(=O)Cc4cc(OC)c(OC)cc43)cc2)cc1 [IIIao, 7,8-dimethoxy-1-[4-(4-methoxyphenyl)phenyl]-3-methyl-3,5-dihydro-4H-2,3-benzodiazepin-4-one] — within 1.5-fold, 1.7 µM

Same assay, conditions: Table 1, formula (III); compound at 10 μM

With `CCCCCCCCCCCCN1N=C(c2ccccc2)c2cc(OC)c(OC)cc2CC1=O` [IIIad, 3-n-dodecyl-7,8-dimethoxy-1-phenyl-3,5-dihydro-4H-2,3-benzodiazepin-4-one] the “PDE4 percentage inhibition at 10 μM” value was 3.9%.

Same assay, conditions: Table 2, formula (XXII); 1 μM cyclic AMP

Point of comparison: `COc1cc2c(cc1OC)C(c1ccc(Br)cc1)=NCC(=O)N2` [XXIIaf, 5-(4-bromophenyl)-7,8-dimethoxy-1,3-dihydro-2H-1,4-benzodiazepin-2-one], IC50 15 µM. Against it:
- COc1cc2c(cc1OC)C(c1ccccc1)=NC(c1ccccc1)C(=O)N2 (stereo not drawn) [XXIIaz, 7,8-dimethoxy-3,5-diphenyl-1,3-dihydro-2H-1,4-benzodiazepin-2-one] — 1.6-fold lower, 9.5 µM
- COc1cc2c(cc1OC)C(c1cccc(Br)c1)=NCC(=O)N2 [XXIIak, 5-(3-bromophenyl)-7,8-dimethoxy-1,3-dihydro-2H-1,4-benzodiazepin-2-one] — within 1.5-fold, 13 µM

Same assay, conditions: Table 2, formula (XXII); compound at 10 μM

Point of comparison: `O=C1CN=C(c2ccc(Br)cc2)c2ccc(Br)cc2N1` [XXIIab, 8-bromo-5-(4-bromophenyl)-1,3-dihydro-2H-1,4-benzodiazepin-2-one], “PDE4 percentage inhibition at 10 μM” value 10%. Against it:
- CCCCN(Cc1ccccc1)C(=O)OC1N=C(c2ccccc2)c2cc(OC)c(OC)cc2NC1=O [XXIIav, (7,8-dimethoxy-5-phenyl-2-oxo-2,3-dihydro-1H-1,4-benzodiazepin-3-yl)benzyl(S)-butylcarbamate] — higher, 23%

Same assay, conditions: Table 3, formula (II); 1 μM cyclic AMP

Point of comparison: `COc1cc2c(cc1OC)N(C)C(=O)CN=C2c1cccs1` [IIak, 7,8-dimethoxy-1-methyl-5-(2-thienyl)-1,3-dihydro-1,4-benzodiazepin-2-one], IC50 16 µM. Against it:
- CCN1C(=O)CN=C(c2ccc(C#CCOCc3ccccc3)cc2)c2cc(OC)c(OC)cc21 [IIbn, 5-{4-[3-(benzyloxy)prop-1-ynyl]phenyl}-1-ethyl-7,8-dimethoxy-1,3-dihydro-2H-1,4-benzodiazepin-2-one] — 5.4-fold lower, 2.95 µM
- CCOc1cc2c(cc1OC)C(c1ccccc1)=NC(c1ccccc1)C(=O)N2CC (stereo not drawn) [IIdk, 3,5-diphenyl-8-ethoxy-1-ethyl-7-methoxy-1,3-dihydro-2H-1,4-benzodiazepin-2-one] — 15-fold lower, 1.1 µM
- CCOc1cc2c(cc1OC)C(c1ccccc1)=NC(Cc1cccc(C#N)c1)C(=O)N2C (stereo not drawn) [IIdf, 3-[(8-ethoxy-7-methoxy-1-methyl-2-oxo-5-phenyl-2,3-dihydro-1H-1,4-benzodiazepin-3-yl)methyl]benzonitrile] — 11-fold lower, 1.5 µM
- CCN1C(=O)C(Cc2cccc(OC)c2)N=C(c2ccccc2)c2cc(OC)c(OC)cc21 (stereo not drawn) [IIdc, 1-ethyl-7,8-dimethoxy-3-(3-methoxybenzyl)-5-phenyl-1,3-dihydro-2H-1,4-benzodiazepin-2-one] — 3.1-fold lower, 5.1 µM
- COc1ccc(C2=NCC(=O)N(C)c3cc(OC)c(OC)cc32)cc1 [IIaw, 7,8-dimethoxy-5-(4-methoxyphenyl)-1-methyl-1,3-dihydro-1,4-benzodiazepin-2-one] — 1.6-fold lower, 10 µM
- COc1cc2c(cc1OC)N(C)C(=O)CN=C2c1ccc2[nH]ccc2c1 [IIan, 5-(5-indolyl)-7,8-dimethoxy-1-methyl-1,3-dihydro-1,4-benzodiazepin-2-one] — 4.4-fold lower, 3.6 µM
- COc1cc2c(cc1OC)N(C)C(=O)CN=C2/C=C/c1ccccc1 [IIas, 7,8-dimethoxy-1-methyl-5-[(E)-2-phenylethenyl]-1,3-dihydro-2H-1,4-benzodiazepin-2-one] — 1.9-fold lower, 8.4 µM
- CCN1C(=O)C(Cc2cc(Cl)ccc2Cl)N=C(c2ccccc2)c2cc(OC)c(OC)cc21 (stereo not drawn) [IIdi, 3-(2,5-dichlorobenzyl)-7,8-dimethoxy-1-ethyl-5-phenyl-1,3-dihydro-2H-1,4-benzodiazepin-2-one] — 2-fold lower, 8.15 µM
- COc1cc2c(cc1OC)N(C)C(=O)CN=C2c1cc2ccccc2s1 [IIac, 5-(2-benzo[b]thienyl)-7,8-dimethoxy-1-methyl-1,3-dihydro-1,4-benzodiazepin-2-one] — 7-fold lower, 2.3 µM
- COc1cc2c(cc1OC)N(C)C(=O)CN=C2c1cc2ccccc2[nH]1 [IIaq, 5-(2-indolyl)-7,8-dimethoxy-1-methyl-1,3-dihydro-1,4-benzodiazepin-2-one] — 2-fold lower, 7.9 µM
- CCN1C(=O)C(Cc2ccccc2C)N=C(c2ccccc2)c2cc(OC)c(OC)cc21 (stereo not drawn) [IIcz, 1-ethyl-7,8-dimethoxy-3-(2-methylbenzyl)-5-phenyl-1,3-dihydro-2H-1,4-benzodiazepin-2-one] — 3.6-fold lower, 4.4 µM
- COc1cc2c(cc1OC)N(C)C(=O)CN=C2c1ccc(Br)cc1 [IIba, 5-(4-bromophenyl)-7,8-dimethoxy-1-methyl-1,3-dihydro-2H-1,4-benzodiazepin-2-one] — within 1.5-fold, 17 µM
- CCN1C(=O)C(Cc2ccccc2Cl)N=C(c2ccccc2)c2cc(OC)c(OC)cc21 (stereo not drawn) [IIcy, 3-(2-chlorobenzyl)-1-ethyl-7,8-dimethoxy-5-phenyl-1,3-dihydro-2H-1,4-benzodiazepin-2-one] — 5.7-fold lower, 2.8 µM

`CCN1C(=O)C(Cc2ccccc2C#N)N=C(c2ccccc2)c2cc(OC)c(OC)cc21` (stereo not drawn) [IIce, 3-(2-cyanobenzyl)-7,8-dimethoxy-1-ethyl-5-phenyl-1,3-dihydro-2H-1,4-benzodiazepin-2-one] was tested, and the IC50 was 0.88 µM and 1.4 µM.
For `CCN1C(=O)CN=C(c2ccc(C#Cc3ccccc3)cc2)c2cc(OC)c(OC)cc21` [IIbr, 1-ethyl-7,8-dimethoxy-5-[4-(phenylethynyl)phenyl]-1,3-dihydro-2H-1,4-benzodiazepin-2-one], the IC50 was 6.6 µM and 3.8 µM.

Same assay, conditions: Table 3, formula (II); compound at 10 μM

Point of comparison: `CCN1C(=O)C(Cc2ccc(-c3ccccc3)cc2)N=C(c2ccccc2)c2cc(OC)c(OC)cc21` (stereo not drawn) [IIck, 3-(1,1′-biphenyl-4-ylmethyl)-1-ethyl-7,8-dimethoxy-5-phenyl-1,3-dihydro-2H-1,4-benzodiazepin-2-one], “PDE4 percentage inhibition at 10 μM” value 32.2%. Against it:
- COc1cc2c(cc1OC)N(C)C(=O)CN=C2c1ccccc1C [IIau, 7,8-dimethoxy-1-methyl-5-(2-methylphenyl)-1,3-dihydro-1,4-benzodiazepin-2-one] — lower, 18.5%
- CCN1C(=O)C(Cc2ccc(Cl)cc2Cl)N=C(c2ccccc2)c2cc(OC)c(OC)cc21 (stereo not drawn) [IIco, 3-(2,4-dichlorobenzyl)-7,8-dimethoxy-1-ethyl-5-phenyl-1,3-dihydro-2H-1,4-benzodiazepin-2-one] — higher, 34.3%
- CCN1C(=O)C(Cc2cc(Br)cc(Br)c2)N=C(c2ccccc2)c2cc(OC)c(OC)cc21 (stereo not drawn) [IIbx, 3-(3,5-dibromobenzyl)-7,8-dimethoxy-1-ethyl-5-phenyl-1,3-dihydro-2H-1,4-benzodiazepin-2-one] — lower, 18%
- CCN1C(=O)C(Cc2ccc(C)cc2)N=C(c2ccccc2)c2cc(OC)c(OC)cc21 (stereo not drawn) [IIdd, 1-ethyl-7,8-dimethoxy-3-(4-methylbenzyl)-5-phenyl-1,3-dihydro-2H-1,4-benzodiazepin-2-one] — lower, 31.5%
- CCOC(=O)CC1N=C(c2ccccc2)c2cc(OC)c(OC)cc2N(CC)C1=O (stereo not drawn) [IIbv, ethyl (1-ethyl-7,8-dimethoxy-2-oxo-5-phenyl-2,3-dihydro-1H-1,4-benzodiazepin-3-yl)acetate] — higher, 44.4%
- COc1cc2c(cc1OC)N(C)C(=O)[C@H](Cc1ccccc1)N=C2c1ccccc1 [IIdj, (S)-3-benzyl-7,8-dimethoxy-1-methyl-5-phenyl-1,3-dihydro-2H-1,4-benzodiazepin-2-one] — higher, 48.3%
- COc1cc2c(cc1OC)N(C)C(=O)CN=C2CCc1ccccc1 [IIaz, 7,8-dimethoxy-1-methyl-5-(2-phenylethyl)-1,3-dihydro-2H-1,4-benzodiazepin-2-one] — lower, 6.9%
- CCN1C(=O)C(Cc2ccc(Br)cc2)N=C(c2ccccc2)c2cc(OC)c(OC)cc21 (stereo not drawn) [IIcd, 3-(4-bromobenzyl)-1-ethyl-7,8-dimethoxy-5-phenyl-1,3-dihydro-2H-1,4-benzodiazepin-2-one] — lower, 20.1%
- CCN1C(=O)C(C/C=C/c2ccccc2)N=C(c2ccccc2)c2cc(OC)c(OC)cc21 (stereo not drawn) [IIbz, 7,8-dimethoxy-1-ethyl-3-(E-3-phenylpropen-2yl)-5-phenyl-1,3-dihydro-2H-1,4-benzodiazepin-2-one] — higher, 42.3%
- COc1cc2c(cc1OC)N(CCO)C(=O)CN=C2c1ccccc1 [IIcx, 7,8-dimethoxy-1-(2-hydroxyethyl)-5-phenyl-1,3-dihydro-2H-1,4-benzodiazepin-2-one] — lower, 9.9%
- COc1ccc2c(c1)C(c1ccccc1)=NCC(=O)N2C [IIdl, 7-methoxy-1-methyl-5-phenyl-1,3-dihydro-2H-1,4-benzodiazepin-2-one] — higher, 34.6%
